The source of these data is paper PMC12035797, “Peptidomimetics Activating the Proteasome: A New Perspective for Parkinson’s Treatment” (Journal of Medicinal Chemistry, 2025).

Where a SMILES comes first, the peptide text is derived from it. [ ]: non-standard residue; d: D form. N(4-MeOBn)Gly = COc1ccc(CNCC(=O)O)cc1; NMeY = CN[C@@H](Cc1ccc(O)cc1)C(=O)O; Gly(N-CH2CH2OH) = O=C(O)CNCCO; NMeK = CN[C@@H](CCCCN)C(=O)O; Nlys = NCCCCNCC(=O)O

Common to all, as to type: biochemical
In one assay the test system is T1, human 20S proteasome.
T1 construct: human proteasome isolated from erythrocytes; from tissue; host or cells: human erythrocytes
Put plainly: h20S proteasome activity probed with FRET-type Dabcyl-EDANS substrate. To be noted: for h20S stimulating capacity, Dabcyl-EDANS: 1.0-50 μM modulator. From the text:
(§1) To assess the influence of substitutions increasing proteolytic stability on the modulators’ capacity to stimulate chymotrypsin-like, trypsin-like, and caspase-like activity of h20S, we used classic fluorogenic substrates: Suc-LLVY-AMC, Boc-LRR-AMC, and Z-LLE-AMC, respectively. To confirm the observed stimulating capacity, we also conducted assays using a FRET-type reporter peptide with a sequence consisting of 11 residues (Lys(Dabcyl)-[…]EDANS)-Gly).[27] As we checked, the activated 20S hydrolyzed this substrate after more than one residue (Lys, Gly, and Glu), which makes it a probe better reflecting the concerted action of the proteasome’s three peptidases. […] The discrepancy in the level of activation was mainly due to the greater sensitivity of the FRET substrate, as it is not digested, unlike the AMC-based probes, by the latent proteasome, which results in greater differences in fluorescence relative to the controls. […] The ability to affect individual peptidases of the proteasome in different ways is most likely related to the allosteric mechanism of action of the modulators. Binding at a site distant from the catalytic compartment may result in greater diversity in the pathways by which the signal reaches active sites and differential effects of that signal on each peptidase.
(§2) The effect of all synthesized peptidomimetics on the catalytic activity of the proteasome was tested using a human proteasome isolated from erythrocytes. Suc-LLVY-AMC, Boc-LRR-AMC, and Z-LLE-AMC fluorogenic substrates (Bachem, Bubendorf, Switzerland) were used for assessment of the chymotrypsin-, trypsin-, and caspase-like activities, respectively. A homemade FRET-type substrate Dabcyl-EDANS (Lys(Dabcyl)-[…]EDANS)-Gly)[26] was used as an additional probe. Stock solutions of the substrates and tested peptidomimetics were prepared in dimethyl sulfoxide (DMSO), ensuring that the final concentration of DMSO in all samples remained consistent at 2%. The small fluorogenic substrates were used at a final concentration of 100 μM, while Dabcyl-EDANS was prepared at a final concentration of 15 μM. Modulators were tested in concentrations ranging from 1.0 to 50 μM, with compounds containing TAT or 6R sequences tested at lower concentrations ranging from 0.5 to 10 μM. Activity tests were conducted in 96-well plates using 50 mM Tris/HCl, pH 8.0, as an assay buffer. The final concentration of h20S proteasome was adjusted to 0.002 mg/mL (2.8 nM). The fluorescence of released aminomethylcoumarin (AMC) was monitored at 460 nm (λex was 380 nm), while the hydrolysis of Dabcyl-EDANS was detected by measuring emission at 493 nm (λex was set at 335 nm). Fluorescence measurements were taken continuously every 2 min over a 60 min period at 37 °C using a Tecan Infinite M200Pro spectrofluorometer (Tecan Trading AG, Männedorf, Switzerland). All activity assays were performed in at least three independent replicates. The relative activity was calculated in relation to the catalytic activity of the vehicle (DMSO)-treated latent proteasome, which was regarded as 100%. Statistical analysis was performed using the one-way ANOVA followed by Tukey’s post-hoc test. P-value <0.05 was considered statistically significant.

Assay [1] relates to T2, human 20S proteasome, ChT-L peptidase.
T2 construct: human proteasome isolated from erythrocytes; from tissue; host or cells: human erythrocytes
Put plainly: Chymotrypsin-like (ChT-L) activity of h20S probed with Suc-LLVY-AMC. The protocol: (§3) To assess the influence of substitutions increasing proteolytic stability on the modulators’ capacity to stimulate chymotrypsin-like, trypsin-like, and caspase-like activity of h20S, we used classic fluorogenic substrates: Suc-LLVY-AMC, Boc-LRR-AMC, and Z-LLE-AMC, respectively.
as §2, with “Modulators were tested in concentrations ranging from 1.0 to 50 μM, with compounds containing TAT or 6R sequences tested at lower concentrations ranging from 0.5 to 10 μM.” left out

The subject of assay [2] is T3, human 20S proteasome, T-L peptidase.
T3 construct: human proteasome isolated from erythrocytes; from tissue; host or cells: human erythrocytes
The assay can be described thus: Trypsin-like (T-L) activity of h20S probed with Boc-LRR-AMC. The settings on record: 100 μM Boc-LRR-AMC. The method, then: as §3
as §2, with “Modulators were tested in concentrations ranging from 1.0 to 50 μM, with compounds containing TAT or 6R sequences tested at lower concentrations ranging from 0.5 to 10 μM.” left out

Assay [3] relates to T4, human 20S proteasome, C-L peptidase.
T4 construct: human proteasome isolated from erythrocytes; from tissue; host or cells: human erythrocytes
Put plainly: Caspase-like (C-L) activity of h20S probed with Z-LLE-AMC. To be noted: 100 μM Z-LLE-AMC.
Text: as §1, §2

The mark [4] stands for this setting: 100 μM Suc-LLVY-AMC, whole concentration range.

For `C[C@@H](O)[C@H](NC(=O)[C@H](Cc1ccccc1)NC(=O)[C@H](Cc1ccc(O)cc1)NC(=O)[C@@H](N)CCCCN)C(=O)NCC(=O)N[C@@H](CO)C(=O)N[C@@H](CCCCN)C(=O)N[C@@H](CC(=O)O)C(=O)N[C@@H](Cc1c[nH]c2ccccc12)C(=O)N[C@@H](CCCNC(=N)N)C(=O)N(CCO)CC(=O)N[C@@H](Cc1ccc(O)cc1)C(=O)N[C@@H](Cc1ccc(O)cc1)C(=O)N[C@@H](CO)C(=O)O` [1b] (H-KYFTGSKDWR[Gly(N-CH2CH2OH)]YYS-OH), the “h20S stimulating capacity, Dabcyl-EDANS” value with human 20S proteasome (15 μM Dabcyl-EDANS) is “less strongly than 1”. Also, in assay [1] (setting [4]), the “ChT-L stimulating capacity, Suc-LLVY-AMC” value is recorded as “lower capacity of activating h20S”.

Regarding `CN[C@@H](CCCCN)C(=O)N(C)[C@@H](Cc1ccc(O)cc1)C(=O)N[C@@H](Cc1ccccc1)C(=O)N[C@H](C(=O)NCC(=O)N[C@@H](CO)C(=O)N[C@@H](CCCCN)C(=O)N[C@@H](CC(=O)O)C(=O)N[C@@H](Cc1c[nH]c2ccccc12)C(=O)N[C@@H](CCCNC(=N)N)C(=O)N[C@@H](CO)C(=O)N[C@@H](Cc1ccc(O)cc1)C(=O)N[C@@H](Cc1ccc(O)cc1)C(=O)N[C@@H](CO)C(=O)O)[C@@H](C)O` [1e] (H-[NMeK][NMeY]FTGSKDWRSYYS-OH), in the assay on human 20S proteasome (15 μM Dabcyl-EDANS), the “h20S stimulating capacity, Dabcyl-EDANS” value is given as “did not lose their ability to effectively stimulate h20S”. Further, the “stimulation of h20S activity, Dabcyl-EDANS probe” value with human 20S proteasome (15 μM Dabcyl-EDANS, level reached vs latent proteasome) was found to be 12 fold. Besides, the “h20S stimulating potency, Dabcyl-EDANS” value in the assay on human 20S proteasome (at the lowest concentrations) was “even more potent than 1”. For the same molecule, the “stimulation of h20S activity, Suc-LLVY-AMC probe” value in assay [1] (100 μM Suc-LLVY-AMC, level reached vs latent proteasome) turned out to be 8 fold.

As to `C[C@@H](O)[C@H](NC(=O)[C@H](Cc1ccccc1)NC(=O)[C@H](Cc1ccc(O)cc1)NC(=O)[C@@H](N)CCCCN)C(=O)NCC(=O)N[C@@H](CO)C(=O)N(CCCCN)CC(=O)N[C@@H](CC(=O)O)C(=O)N[C@@H](Cc1ccc(O)cc1)C(=O)N[C@@H](CCCNC(=N)N)C(=O)N[C@@H](CCCNC(=N)N)C(=O)N[C@@H](Cc1ccc(O)cc1)C(=O)N[C@@H](Cc1ccc(O)cc1)C(=O)N[C@@H](CO)C(=O)O` [2b] (H-KYFTGS[Nlys]DYRRYYS-OH), the “h20S stimulating capacity, Dabcyl-EDANS” value with human 20S proteasome (15 μM Dabcyl-EDANS) is “comparable stimulatory capacity”. Moreover, the “T-L stimulating capacity, Boc-LRR-AMC” value in assay [2] is “comparable stimulatory capacity”. Also, the “C-L stimulating capacity, Z-LLE-AMC” value in assay [3] is listed as “comparable stimulatory capacity”. Further, in assay [1] (at higher concentrations), the “ChT-L stimulating capacity, Suc-LLVY-AMC” value is “efficiency comparable to 2 and 2a”.

For `C[C@@H](O)[C@H](NC(=O)[C@H](Cc1ccccc1)NC(=O)[C@H](Cc1ccc(O)cc1)NC(=O)CNCCCCN)C(=O)NCC(=O)N[C@@H](CO)C(=O)N(CCCCN)CC(=O)N[C@@H](CC(=O)O)C(=O)N[C@@H](Cc1ccc(O)cc1)C(=O)N[C@@H](CCCNC(=N)N)C(=O)N[C@@H](CCCNC(=N)N)C(=O)N[C@@H](Cc1ccc(O)cc1)C(=O)N[C@@H](Cc1ccc(O)cc1)C(=O)N[C@@H](CO)C(=O)O` [2c] (H-[Nlys]YFTGS[Nlys]DYRRYYS-OH), the “h20S stimulating capacity, Dabcyl-EDANS” value with human 20S proteasome (15 μM Dabcyl-EDANS) is “comparable stimulatory capacity”. In addition, in assay [2], the “T-L stimulating capacity, Boc-LRR-AMC” value is listed as “comparable stimulatory capacity”. In addition, in assay [3], the “C-L stimulating capacity, Z-LLE-AMC” value is “comparable stimulatory capacity”. For the same molecule, the “ChT-L stimulating capacity, Suc-LLVY-AMC” value in assay [1] (at 1 μM concentration) was “same moderate efficiency”; in assay [1] (at higher concentrations), “efficiency comparable to 2 and 2a”.

Consider `COc1ccc(CN(CC(=O)N[C@@H](Cc2ccccc2)C(=O)N[C@H](C(=O)NCC(=O)N[C@@H](CO)C(=O)N[C@@H](CCCCN)C(=O)N[C@@H](CC(=O)O)C(=O)N[C@@H](Cc2ccc(O)cc2)C(=O)N[C@@H](CCCNC(=N)N)C(=O)N[C@@H](CCCNC(=N)N)C(=O)N[C@@H](Cc2ccc(O)cc2)C(=O)N[C@@H](Cc2ccc(O)cc2)C(=O)N[C@@H](CO)C(=O)O)[C@@H](C)O)C(=O)[C@@H](N)CCCCN)cc1` [2d] (H-K[N(4-MeOBn)Gly]FTGSKDYRRYYS-OH), for which the “h20S stimulating capacity, Dabcyl-EDANS” value in the assay with human 20S proteasome (15 μM Dabcyl-EDANS) was “comparable stimulatory capacity”. Further, in assay [2], the “T-L stimulating capacity, Boc-LRR-AMC” value was “comparable stimulatory capacity”. Besides, in assay [3], the “C-L stimulating capacity, Z-LLE-AMC” value is given as “comparable stimulatory capacity”. Further, the “ChT-L stimulating capacity, Suc-LLVY-AMC” value in assay [1] (at 1 μM concentration) is on record as “same moderate efficiency”; in assay [1] (at higher concentrations), “as inefficient as 2e”.

`COc1ccc(CN(CC(=O)N[C@@H](CCCNC(=N)N)C(=O)N[C@@H](CCCNC(=N)N)C(=O)N[C@@H](Cc2ccc(O)cc2)C(=O)N[C@@H](Cc2ccc(O)cc2)C(=O)N[C@@H](CO)C(=O)O)C(=O)[C@H](CC(=O)O)NC(=O)[C@H](CCCCN)NC(=O)[C@H](CO)NC(=O)CNC(=O)[C@@H](NC(=O)[C@H](Cc2ccccc2)NC(=O)[C@H](Cc2ccc(O)cc2)NC(=O)[C@@H](N)CCCCN)[C@@H](C)O)cc1` [2e] (H-KYFTGSKD[N(4-MeOBn)Gly]RRYYS-OH): the “h20S stimulating capacity, Dabcyl-EDANS” value in the assay on human 20S proteasome (15 μM Dabcyl-EDANS) is listed as “least effective stimulants”. Further, in assay [2], the “T-L stimulating capacity, Boc-LRR-AMC” value was “weakest activators”. Also, the “C-L stimulating capacity, Z-LLE-AMC” value in assay [3] is recorded as “weakest activators”. Further, the “ChT-L stimulating capacity, Suc-LLVY-AMC” value in assay [1] (setting [4]) is reported as “least effective stimulants”.

With H-KYFTGSKDYRRYYS-OH [compound 2], the “h20S stimulating capacity, Dabcyl-EDANS” value in the assay on human 20S proteasome (15 μM Dabcyl-EDANS) is “most effective h20S stimulators”. In addition, in assay [1] (setting [4]), the “ChT-L stimulating capacity, Suc-LLVY-AMC” value is on record as “most effective h20S stimulators”.

Take “RKKRRQRRR [tat, fragment of the HIV-1 Tat 48–58 peptide used as cell-penetrating peptide, tested alone as control, reference compound]”: in assay [1] (setting [4]), the “ChT-L stimulating capacity, Suc-LLVY-AMC” value is given as “proteasome inhibition”.
